The subject of this assay is Glo-Response ARE-luc2P HEK293 cell line. Put plainly: ARE luciferase reporter cell-based assay.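 Also: luciferase signal tracks Nrf2 activation of the ARE once compounds disrupt KEAP1-Nrf2 binding, read with One-Glo reagent, DMSO serving as low control.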 The conditions noted are these: Homo sapiens, HEK293, 24 h, average of results obtained. For orientation: Reporter assays use an easily measured gene product as a stand-in for the process of interest.
With `CCn1nnc2c(C)c(C(CC(=O)O)c3ccc(C)c(CN4C[C@@H]5CCCN5c5ccccc5S4(=O)=O)c3)ccc21` (mixture of isomers) [Example 147, (R/S)-3-(3-(((S)-5,5-Dioxido-7a,8,9,10-tetrahydrobenzo[f]pyrrolo[2,1-d][1,2,5]thiadiazepin-6(7H)-yl)methyl)-4-methylphenyl)-3-(1-ethyl-4-methyl-1H-benzo[d][1,2,3]triazol-5-yl)propanoic Acid], the concentration giving a half-maximal response (EC50) (commonly the concentration that produces a half-maximal response) was 0.019 µM.

Take `CCn1nnc2c(C)c(C(CC(=O)O)c3ccc(C)c(CN4C[C@H]5CCCN5c5ccccc5S4(=O)=O)c3)ccc21` (mixture of isomers) [Example 152, (R/S)-3-(3-(((R)-5,5-Dioxido-7a,8,9,10-tetrahydrobenzo[f]pyrrolo[2,1-d][1,2,5]thiadiazepin-6(7H)-yl)methyl)-4-methylphenyl)-3-(1-ethyl-4-methyl-1H-benzo[d][1,2,3]triazol-5-yl)propanoic Acid]: the EC50 came out at 0.0065 µM.

In turn, `CCn1nnc2c(C)c(C(CC(=O)O)c3ccc(C)c(CN4C[C@H]5COCCN5c5ncccc5S4(=O)=O)c3)ccc21` (mixture of isomers) [Example 135, (R/S)-3-(3-(((*S)-5,5-Dioxido-7a,8,10,11-tetrahydro-[1,4]oxazino[3,4-d]pyrido[2,3-f][1,2,5]thiadiazepin-6(7H)-yl)methyl)-4-methylphenyl)-3-(1-ethyl-4-methyl-1H-benzo[d][1,2,3]triazol-5-yl)propanoic Acid] had an EC50 of 0.024 µM.

On to `CCn1nnc2c(C)c(C(CC(=O)O)c3ccc(C)c(CN4C[C@@H]5COCCN5c5ncccc5S4(=O)=O)c3)ccc21` (mixture of isomers) [Example 138, (R/S)-3-(3-(((*R)-5,5-Dioxido-7a,8,10,11-tetrahydro-[1,4]oxazino[3,4-d]pyrido[2,3-f][1,2,5]thiadiazepin-6(7H)-yl)methyl)-4-methylphenyl)-3-(1-ethyl-4-methyl-1H-benzo[d][1,2,3]triazol-5-yl)propanoic Acid], for which the EC50 amounted to 0.014 µM.

`CCn1nnc2c(C)c(C(CC(=O)O)c3ccc(C)c(CN4C[C@@H]5CCCCN5c5ncccc5S4(=O)=O)c3)ccc21` (mixture of isomers) [Example 141, (R/S)-3-(3-(((*S)-5,5-Dioxido-7,7a,8,9,10,11-hexahydro-6H-dipyrido[2,1-d:2′,3′-f][1,2,5]thiadiazepin-6-yl)methyl)-4-methylphenyl)-3-(1-ethyl-4-methyl-1H-benzo[d][1,2,3]triazol-5-yl)propanoic Acid] registered a half-maximal effective concentration (EC50) of 0.0039 µM.

`CCn1nnc2c(C)c(C(CC(=O)O)c3ccc(C)c(CN4C[C@H]5CCCCN5c5ncccc5S4(=O)=O)c3)ccc21` (mixture of isomers) [Example 144, (R/S)-3-(3-(((*R)-5,5-Dioxido-7,7a,8,9,10,11-hexahydro-6H-dipyrido[2,1-d:2′,3′-f][1,2,5]thiadiazepin-6-yl)methyl)-4-methylphenyl)-3-(1-ethyl-4-methyl-1H-benzo[d][1,2,3]triazol-5-yl)propanoic Acid] returned an EC50 of 0.0031 µM.

With `CCn1nnc2c(C)c(C(CC(=O)O)c3ccc(C)c(CN4CC(C)(C)Oc5ncccc5S4(=O)=O)c3)ccc21` (racemic) [Example 150, (R/S)-3-[3-[(4,4-Dimethyl-1,1-dioxo-3H-pyrido[2,3-b][1,4,5]oxathiazepin-2-yl)methyl]-4-methyl-phenyl]-3-(1-ethyl-4-methyl-benzotriazol-5-yl)propanoic Acid], the concentration giving a half-maximal response (EC50) was found to be 0.056 µM.

The compound `CCn1nnc2c(C)c(C(CC(=O)O)c3ccc(C)c(CN4CC(C)(C)Oc5ccccc5S4(=O)=O)c3)ccc21` (racemic) [Example 151, (R/S)-3-(3-((4,4-Dimethyl-1,1-dioxido-3,4-dihydro-2H-benzo[b][1,4,5]oxathiazepin-2-yl)methyl)-4-methylphenyl)-3-(1-ethyl-4-methyl-1H-benzo[d][1,2,3]triazol-5-yl)propanoic Acid] had an EC50 of 0.01 µM.

`Cc1ccc([C@H](CC(=O)O)c2ccn3c(C(F)(F)F)nnc3c2C)cc1CN1CC2CCCCN2c2ncc(Cl)cc2S1(=O)=O` (mixture of isomers) [Example 191, (3*S)-3-(3-((3-Chloro-5,5-dioxido-7,7a,8,9,10,11-hexahydro-6H-dipyrido[2,1-d:2′,3′-f][1,2,5]thiadiazepin-6-yl)methyl)-4-methylphenyl)-3-(8-methyl-3-(trifluoromethyl)-[1,2,4]triazolo[4,3-a]pyridin-7-yl)propanoic Acid] registered an EC50 of 0.0019 µM.

Compound `Cc1ccc(C(CC(=O)O)c2ccc3c(nnn3C3CC3)c2C)cc1CN1CC2(CC2)N(C)c2ncccc2S1(=O)=O` (racemic) [Example 224, (R/S)-3-(1-Cyclopropyl-4-methyl-1H-benzo[d][1,2,3]triazol-5-yl)-3-(4-methyl-3-((5′-methyl-1′,1′-dioxido-5′H-spiro[cyclopropane-1,4′-pyrido[2,3-f][1,2,5]thiadiazepin]-2′(3′H)-yl)methyl)phenyl)propanoic Acid] showed an EC50 of 0.02 µM.

`CCn1nnc2c(C)c(C(CC(=O)O)c3ccc(C)c(CN4CC5(COC5)Oc5ccccc5S4(=O)=O)n3)ccc21` (racemic) [Example 237, (R 5)-3-(6-((1,1-Dioxidospiro[benzo[b][1,4,5]oxathiazepine-4,3′-oxetan]-2(3H)-yl)methyl)-5-methylpyridin-2-yl)-3-(1-ethyl-4-methyl-1H-benzo[d][1,2,3]triazol-5-yl)propanoic Acid] returned an EC50 of 0.019 µM.

`Cc1cnc2c(c1)S(=O)(=O)N(Cc1cc(C(c3ccn4c(C(F)F)nnc4c3C)C(C)(C)C(=O)O)ccc1C)CC1(CC1)O2` (racemic) [Example 559, (R/S)-3-(3-(Difluoromethyl)-8-methyl-[1,2,4]triazolo[4,3-a]pyridin-7-yl)-2,2-dimethyl-3-(4-methyl-3-((8′-methyl-1′,1′-dioxidospiro[cyclopropane-1,4′-pyrido[2,3-b][1,4,5]oxathiazepin]-2′(3′H)-yl)methyl)phenyl)propanoic Acid] came in with an EC50 of 0.00469 µM.

`Cc1ccc(C(c2ccn3c(C(F)F)nnc3c2C)C(C)(C)C(=O)O)cc1CN1CC2(CC2)Oc2ncccc2S1(=O)=O` (racemic) [Example 566, (R/S)-3-(3-(Difluoromethyl)-8-methyl-[1,2,4]triazolo[4,3-a]pyridin-7-yl)-3-(3-((1′,1′-dioxidospiro[cyclopropane-1,4′-pyrido[2,3-b][1,4,5]oxathiazepin]-2′(3′H)-yl)methyl)-4-methylphenyl)-2,2-dimethylpropanoic Acid] had a 50% effective concentration (EC50) of 0.00681 µM.

Regarding `Cc1ncc(C(c2ccn3c(C(F)(F)F)nnc3c2C)C(C)(C)C(=O)O)cc1CN1CC2(CCOCC2)Oc2ncccc2S1(=O)=O` (racemic) [Example 569, (R/S)-3-(5-((1′,1′-Dioxido-2,3,5,6-tetrahydrospiro[pyran-4,4′-pyrido[2,3-b][1,4,5]oxathiazepin]-2′(3′H)-yl)methyl)-6-methylpyridin-3-yl)-2,2-dimethyl-3-(8-methyl-3-(trifluoromethyl)-[1,2,4]triazolo[4,3-a]pyridin-7-yl)propanoic Acid], a half-maximal effect (EC50) was put at 1.37 µM.

Consider `Cc1cnc2c(c1)S(=O)(=O)N(Cc1cc(C(c3ccn4c(C(F)(F)F)nnc4c3C)C(C)(C)C(=O)O)cnc1C)CC1(CC1)O2` (racemic) [Example 572], for which a half-maximal response (EC50) required 0.392 µM.

In turn, `Cc1ccc([C@H](CC(=O)O)c2ccc3c(nnn3CC3CC3)c2C)cc1CN1C[C@]2(C)CCCN2c2ncccc2S1(=O)=O` (relative stereo) [Example 12, (*S)-3-(1-(Cyclopropylmethyl)-4-methyl-1H-benzo[d][1,2,3]triazol-5-yl)-3-(4-methyl-3-(((*S)-7a-methyl-5,5-dioxido-7a,8,9,10-tetrahydropyrido[2,3-f]pyrrolo[2,1-d][1,2,5]thiadiazepin-6(7H)-yl)methyl)phenyl)propanoic Acid] showed an EC50 of 0.0027 µM.

Take `Cc1ccc([C@H](CC(=O)O)c2ccn3c(C(F)F)nnc3c2C)cc1CN1C[C@@H]2CCCCN2c2ncc(C#N)cc2S1(=O)=O` (relative stereo) [Example 31, (*S)-3-(3-(((*S)-3-Cyano-5,5-dioxido-7,7a,8,9,10,11-hexahydro-6H-dipyrido[2,1-d:2′,3′-f][1,2,5]thiadiazepin-6-yl)methyl)-4-methylphenyl)-3-(3-(difluoromethyl)-8-methyl-[1,2,4]triazolo[4,3-a]pyridin-7-yl)propanoic Acid]: the EC50 amounted to 0.0099 µM.

The compound `Cc1ccc([C@H](CC(=O)O)c2ccn3c(C(F)F)nnc3c2C)cc1CN1C[C@H]2CCCCN2c2ncc(C#N)cc2S1(=O)=O` (relative stereo) [Example 32, (*S)-3-(3-(((*R)-3-Cyano-5,5-dioxido-7,7a,8,9,10,11-hexahydro-6H-dipyrido[2,1-d:2′,3′-f][1,2,5]thiadiazepin-6-yl)methyl)-4-methylphenyl)-3-(3-(difluoromethyl)-8-methyl-[1,2,4]triazolo[4,3-a]pyridin-7-yl)propanoic Acid] returned an EC50 of 0.0136 µM.

`Cc1ccc([C@H](c2ccn3c(C(F)(F)F)nnc3c2C)C(C)C(=O)O)cc1CN1C[C@@H]2CCCCN2c2ncccc2S1(=O)=O` (relative stereo) [Example 130, (3*R)-3-(3-(((*S)-5,5-Dioxido-7,7a,8,9,10,11-hexahydro-6H-dipyrido[2,1-d:2′,3′-f][1,2,5]thiadiazepin-6-yl)methyl)-4-methylphenyl)-2-methyl-3-(8-methyl-3-(trifluoromethyl)-[1,2,4]triazolo[4,3-a]pyridine-7-yl)propanoic Acid] gave an EC50 of 0.0548 µM.

For the compound `Cc1ccc([C@@H](c2ccn3c(C(F)(F)F)nnc3c2C)C(C)C(=O)O)cc1CN1C[C@@H]2CCCCN2c2ncccc2S1(=O)=O` (relative stereo) [Example 131, (3*S)-3-(3-(((*S)-5,5-Dioxido-7,7a,8,9,10,11-hexahydro-6H-dipyrido[2,1-d:2′,3′-f][1,2,5]thiadiazepin-6-yl)methyl)-4-methylphenyl)-2-methyl-3-(8-methyl-3-(trifluoromethyl)-[1,2,4]triazolo[4,3-a]pyridine-7-yl)propanoic Acid], the EC50 turned out to be 0.0016 µM.

`CCn1nnc2c(C)c([C@@H](CC(=O)O)c3ccc(C)c(CN4C[C@@H]5CCCN5c5ccccc5S4(=O)=O)c3)ccc21` (relative stereo) [Example 148, (*S)-3-[3-[(5,5-Dioxo-7a,8,9,10-tetrahydro-7H-pyrrolo[2,1-d][1,2,5]benzothiadiazepin-6-yl)methyl]-4-methyl-phenyl]-3-(1-ethyl-4-methyl-benzotriazol-5-yl)propanoic Acid] showed an EC50 of 0.015 µM.
